From PubChem BioAssay AID1963437 (Molecular Pharmacology Branch, DTP, NCI, 2024) come the findings set out here.

Values joined by “and” are separate entries in the source; they are usually repeats but may differ in a detail not shown here. Identical values can stand only once. A value given as a limit tells only on which side of the number the result lay.

The term viability, T/C denotes the ratio of treated to control. By IC50 is commonly meant the concentration at which inhibition is half-maximal.

The assay concerns OVCAR-8 complex spheroid, growth inhibition. Briefly: Anticancer human tumor OVCAR-8 cell line growth inhibition [Asc].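 As to all read-outs here: spheroids exposed to agents for 7 days before readout.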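 As to viability, T/C: percent viability relative to DMSO vehicle wells taken as 100%.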 The settings on record: for viability, T/C: stronger effect = lower value. The protocol: Multicellular complex tumor spheroid response to apoptosis pathway targeting inhibitors Alrizomadlin, Pelcitoclax, and Dasminapant in combination with a variety of drugs and investigational agents in selected tumor cell lines
The MDM2 inhibitor alrizomadlin, the Bcl-2/Bcl-xL inhibitor pelcitoclax, and the IAPs inhibitor dasminapant were evaluated both individually and in combination with standard of care and investigational anticancer small molecules within a complex spheroid model of solid tumors. . Complex spheroids include a stromal component modeled by human endothelial cells (HUVEC) and fibroblasts modeled by human mesenchymal stem cells (MSCs). The concentration ranges selected for each drug and investigational agent were based upon clinically achievable concentrations if the clinical Cmax of the agent was known.
Compounds. The drugs and investigational agents: alrizomadlin (APG-115; NSC831270), pelcitoclax (APG-1252; NSC835773), dasminapant (APG-1387;NSC834197), TAK-243 (NSC785004), copanlisib (NSC809693), olaparib (NSC753686), talazoparib (NSC767125), cobimetinib (NSC 768068), eltanexor (KPT-8602, NSC 794443), abemaciclib (NSC 768073), sotorasib (NSC818433), adagrasib (NSC 831453), MRTX-1133 (NSC 836407), Iadademestat (ORY1001, NSC 806812), and RMC-4630 (NSC839698), were obtained from the NCI Developmental Therapeutics Program Chemical Repository. The FDA-approved anticancer drug set is available from the Developmental Therapeutics Program at https://dtp.cancer.gov/organization/dscb/obtaining/available plates.htm. […] The stock solutions were prepared in dimethyl sulfoxide (DMSO, Sigma-Aldrich, St. Louis, MO, cat. D2650) at 800-fold the tested concentration and stored at -70 degrees C prior to their use. All drugs and investigational agents were tested over a range starting from a high concentration at or near the clinical Cmax and decreasing in half-log increments. If the clinical Cmax for an agent had not been determined, the highest concentration tested was 10 microM.
The patient-derived cancer (PDC) cell lines include five colon adenocarcinomas: 186277-243-T-J2-PDC, 616215-338-R-J1-PDC, 439559-082-T-J2-PDC, 463943-066-T-J2-PDC, and 519858-162-T-J1-PDC; three pancreatic carcinomas: 323965-272-R-J2-PDC, 521955-158-R6-J3-PDC, and 521955-158-R2-J5-PDC; two uterine sarcomas: 327498-152-R-J2-PDC and 993429-296-R-J1-PDC; two rhabdomyosarcomas: 755483-174-R-J1-PDC and 772245-204-R-J1-PDC; two soft tissue sarcomas: 126254-015-R-J1-PDC and 494315-158-R-J1-PDC; two malignant fibrous histiocytomas: 317291-083-R-J1-PDC and 596521-263-R-J1-PDC; two breast carcinomas: 171881-019-R-J1-PDC and 885512-296-R-J2-PDC; and one ovarian carcinoma: 6556581-035-R-J-PDC were obtained from the NCI PDMR, (https://pdmr.cancer.gov). The established cell lines HSSY-2 synovial sarcoma (RRID:CVCL 8719), SYO-1 synovial sarcoma (RRID:CVCL_7146), MPNST malignant peripheral neural sheath tumor were obtained from the Sloan Kettering Institute. The following established cell lines were purchased from the American Type Culture Collection (ATCC, Manassas, VA), Sor the received from the NCI repository:, PANC-1 pancreatic carcinoma (CRL-1469, RRID:CVCL_0480), OVCAR-5 ovarian carcinoma (RRID:CVCL_1628), OVCAR-8 ovarian carcinoma (RRID:CVCL_1629), , MCF-7 breast carcinoma (CRL-12584, RRID:CVCL_0031), MDA-MB-231 breast carcinoma (CRL-12532, RRID:CVCL_0062), NCI-H1876 small cell lung carcinoma (CRL-5902, RRID:CVCL_1503), NCI-H510A small cell lung carcinoma (HTB-184, RRID:CVCL_1565), NCI-H1417 (CRL-5869, RRID:CVCL_1469), and NCI-H196 small cell lung carcinoma (CRL-5823, RRID:CVCL_1509). Dr. Peter Houghton (Greehey Children's Cancer Research Institute, University of Texas Health Science Center, San Antonio, TX) provided Rh-18 rhabdomyosarcoma (RRID:CVCL_1659). Pooled donor human umbilical vein endothelial cells (HUVEC, Lonza, cat. CC-2519) and human mesenchymal stem cells (hMSC, Lonza, cat. PT-2501) were purchased from Lonza (Walkersville, MD).
Cell Culture. […]

As for `C=C(F)C(=O)N1CCN(c2nc(OCC3CCCN3C)nc3c2CCN(c2cccc4cccc(Cl)c24)C3)CC1CC#N` (stereo not drawn), the viability, T/C reads like this: (compound 0.0316 µM) 107% (2×) and 96.3%; (compound 0.1 µM) 113% and 98.5% and 93.6%; (compound 0.316 µM) 109% and 84.2% and 106%; (compound 1 µM) 101% and 105% and 104%; (compound 3.16 µM) 25.7% and 39.4% and 37.9%; (compound 10 µM) 0.33% and 0.7% and 1.79%. For the same compound, under “curve of compound”, the IC50 was 2190 nM and 2550 nM and 2560 nM.
`C=CC(=O)N1CCN(c2nc(=O)n(-c3c(C)ccnc3C(C)C)c3nc(-c4c(O)cccc4F)c(F)cc23)C(C)C1` (stereo not drawn): the viability, T/C reads like this: (compound 0.0316 µM) 106% and 97.9% and 94.2%; (compound 0.1 µM) 102% and 109% and 80.9%; (compound 0.316 µM) 84.7% and 95.3% and 101%; (compound 1 µM) 98.6% and 95.9% and 99.3%; (compound 3.16 µM) 86.1% and 102% and 101%; (compound 10 µM) 108% and 99.7% and 96.6%. Moreover, where the note is “curve of compound”, the IC50 was over 10000 nM.
Consider `CCN1C(C(=O)NC23CCC(C(=O)O)(CC2)CC3)C(c2cccc(Cl)c2F)C2(C(=O)Nc3cc(Cl)ccc32)C12CCCCC2` (stereo not drawn), for which the viability, T/C is, setting by setting: (compound 0.03 µM) 93.4% [middle of 9 runs]; (compound 0.949 µM) 100% [middle of 9 runs]; (compound 3 µM) 104% [middle of 9 runs]. Further, the IC50 runs as follows: (compound alone, run of 11/07/2022) over 3000 nM; (curve of compound) over 3000 nM.
In the case of `CCN1CCN(Cc2ccc(Nc3ncc(F)c(-c4cc(F)c5nc(C)n(C(C)C)c5c4)n3)nc2)CC1`, the viability, T/C reads like this: (compound 0.00316 µM) 81.5% and 87.7% and 87.9%; (compound 0.01 µM) 101% and 93.5% and 90.3%; (compound 0.0316 µM) 93.1% and 93.5% and 107%; (compound 0.1 µM) 104% and 84.9% and 103%; (compound 0.316 µM) 98.6% and 100% and 98.5%; (compound 1 µM) 125% and 105% and 129%. Besides, where the note is “curve of compound”, the IC50 was over 1000 nM.
For the compound `COc1c(OCCCN2CCOCC2)ccc2c3n(c(=NC(=O)c4cnc(N)nc4)nc12)CCN3`, the viability, T/C reads like this: (compound 0.00316 µM) 98.2% and 94.8% and 108%; (compound 0.01 µM) 111% and 110% and 109%; (compound 0.0316 µM) 120% and 123% and 130%; (compound 0.1 µM) 167% and 133% and 157%; (compound 0.316 µM) 134% and 141% and 143%; (compound 1 µM) 77% and 89.5% and 94.5%. Moreover, the IC50 (curve of compound) was over 1000 nM.
With `Cc1nc(N2CCC3(CC2)COC(C)C3N)c(CO)nc1Sc1ccnc(N)c1Cl` (stereo not drawn), the viability, T/C (compound 0.00949 µM) was 111% and 101% and 103%; the viability, T/C (compound 0.03 µM) was 121% and 112% and 102%; the viability, T/C (compound 0.0949 µM) was 195% and 147% and 149%; the viability, T/C (compound 0.3 µM) was 239% and 173% and 192%; the viability, T/C (compound 0.949 µM) is 261% and 212% and 243%; the viability, T/C (compound 3 µM) was 261% and 201% and 223%. Besides, under “curve of compound”, the IC50 was over 3000 nM.
On to `Cn1ncnc1[C@H]1c2n[nH]c(=O)c3cc(F)cc(c23)N[C@@H]1c1ccc(F)cc1`, for which the viability, T/C (compound 0.000316 µM) is 92.4% and 93.5% and 99.5%; the viability, T/C (compound 0.001 µM) was 94.9% and 97.8% and 88.9%; the viability, T/C (compound 0.00316 µM) is 95.5% and 93.6% and 106%; the viability, T/C (compound 0.01 µM) is 114% and 102% and 109%; the viability, T/C (compound 0.0316 µM) was 115% and 117% and 105%; the viability, T/C (compound 0.1 µM) is 132% and 102% and 125%. Besides, the IC50 (curve of compound) is over 100 nM.
Consider `NC(=O)C(=Cn1cnc(-c2cc(C(F)(F)F)cc(C(F)(F)F)c2)n1)c1cncnc1`, for which the viability, T/C (compound 0.000949 µM) was 100% and 101% and 69.2%; the viability, T/C (compound 0.003 µM) was 90% and 81.8% and 98.6%; the viability, T/C (compound 0.00949 µM) is 99.8% and 91.2% and 111%; the viability, T/C (compound 0.03 µM) is 95.4% and 109% and 92.8%. For the same compound, the IC50 (curve of compound) was > 300 nM and 54.1 nM.
Take `NC1CCC(NC2CC2c2ccccc2)CC1` (stereo not drawn): the viability, T/C is, setting by setting: (compound 0.000316 µM) 94.7% and 96.7% and 105%; (compound 0.001 µM) 87.7% and 82.6% and 99.8%; (compound 0.00316 µM) 83.1% and 85.2% and 104%; (compound 0.01 µM) 104% and 81.5% and 119%; (compound 0.0316 µM) 113% and 98.7% and 95%; (compound 0.1 µM) 83% and 91.6% and 115%. Further, the IC50 (curve of compound) was over 100 nM.
On to `O=C(c1cc(Cc2n[nH]c(=O)c3ccccc23)ccc1F)N1CCN(C(=O)C2CC2)CC1`, for which the viability, T/C is, setting by setting: (compound 0.0316 µM) 105% and 97.4% and 98.4%; (compound 0.1 µM) 103% (2×) and 97.7%; (compound 0.316 µM) 99% and 82.4% and 107%; (compound 1 µM) 117% and 95.4% and 121%; (compound 3.16 µM) 134% and 104% and 110%; (compound 10 µM) 116% and 122% and 95.5%. For the same compound, under “curve of compound”, the IC50 is over 10000 nM.
As to `O=C(c1ccc(F)c(F)c1Nc1ccc(I)cc1F)N1CC(O)([C@@H]2CCCCN2)C1`, the viability, T/C is 95.4% and 98.1% and 96.1% (compound 0.00316 µM); 122% and 101% and 111% (compound 0.01 µM); 138% and 165% and 133% (compound 0.0316 µM); 153% and 165% and 190% (compound 0.1 µM); 210% and 216% and 228% (compound 0.316 µM); 107% and 80.8% and 86.8% (compound 1 µM). Besides, the IC50 (curve of compound) is over 1000 nM.
